In patent publication US20200190592A1, “PME-1 AS A BIOMARKER TO PREDICT AND DIAGNOSE AN INCREASED RISK OF ENDOMETRIAL CANCER AND GENE SILENCING OF PME-1 TO INHIBIT EPITHELIAL TO MESENCHYMAL TRANSITION” (Medical Diagnostic Laboratories, L.L.C., priority 2018, published 2020):

Test system: PPME1
Assay: qRT-PCR of PPME1 (PME-1) expression in RL95-2 cells
Format: cell-based, human
Conditions: RL95-2, normalized to 18S, vs shSCR
Protocol: In this study, we transfected RL95-2 cells to express empty vector (Control), over-expressing PME-1 (+PME-1) or expressing shRNA against PME-1 (−PME-1) followed by serum starvation for 24 hours. Afterwards, either vehicle or TGF-β treatment was performed at the end of the 24 hours. TGF-β was used to induce cells to initiate the EMT program. Gene expression analysis was conducted using quantitative real-time PCR.
Using RL95-2 endometrial cancer cells, we overexpressed PME-1 (FIG. 21A) or depleted PME-1 with shRNA (FIG. 21B) and confirmed that PME-1 was appropriately expressed.
Total RNA was extracted with Qiagen RNAEasy kit from RL95-2 cells. cDNA was synthesized using 500 ng-1 μg of RNA and SuperScript VILO c-DNA mix (Life Technologies). Taqman probes and PCR-mix were purchased from Life Technologies. All samples were run in triplicates. Results are representative of three independent experiments in which genes of interest were normalized to the house-keeping gene, 18S or GAPDH, where fold-change was calculated using the ddCt method.

Substance “shPPME1 no. 2: shRNA targeting PPME1, SEQ ID NO: 2: GCAGCGATTATTAGTAGAGTT, bp 289-309; used for all subsequent experiments (guide GCAGCGATTATTAGTAGAGTT; listed as Homo sapiens)” has a PME-1 knocked down greater than 50%.
